Experiments:
Experiment in all cases: relative viability (nuclei count vs DMSO), 5 days (fraction); higher = more cells survive
[1] = compound: CCc1c2c(nc3ccc(OC(=O)N4CCC(N5CCCCC5)CC4)cc13)-c1cc3c(c(=O)n1C2)COC(=O)[C@]3(O)CC [Irinotecan] + CC(C)C[C@H](NC(=O)[C@H](Cc1ccccc1)NC(=O)c1cnccn1)B(O)O [Bortezomib] (partner 0.002 µM)
Outline: (§1)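 Lung cancer cell lines were pin-tool dosed in 1536-well plates on the day after seeding, with either a lone drug or a fixed anchor-drug dose plus five library-drug doses (not always all listed) in √10 steps. Nuclei were counted on 4× images after 5 days. Relative viability is the ratio of treated-well to vehicle-well nuclei counts, with each value a median of duplicate plates.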

[2] = compound: Cn1cc(-c2cnc3ccc4ccc(CS(=O)(=O)NCc5ccccn5)cc4c(=O)c3c2)cn1 [MK-8033] + Cc1cc(Nc2cc(N3CCN(C)CC3)nc(Sc3ccc(NC(=O)C4CC4)cc3)n2)n[nH]1 [Tozasertib] (partner 0.1 µM)
Outline: as §1

[3] = compound: CC[C@@H](C)CNCC(=O)N1CCC2=C([C@@H]1COC3=CC=CC(=C3)C)C=CS2 [RU-SKI 43] + CC1(C)CCC(c2ccc(Cl)cc2)=C(CN2CCN(c3ccc(C(=O)NS(=O)(=O)c4ccc(N[C@H](CCN5CCOCC5)CSc5ccccc5)c(S(=O)(=O)C(F)(F)F)c4)cc3)CC2)C1 [Navitoclax] (partner 0.5 µM)
Outline: as §1

[4] = compound: CCc1c2c(nc3ccc(OC(=O)N4CCC(N5CCCCC5)CC4)cc13)-c1cc3c(c(=O)n1C2)COC(=O)[C@]3(O)CC [Irinotecan] + N=C(N)NC(=N)NCCc1ccccc1 [Phenformin] (partner 250 µM)
Outline: as §1

UMC-11
relative viability ([1]; first compound 0.6325 µM): 0.595
relative viability ([1]; first compound 2 µM): 0.519
relative viability ([1]; first compound 6.325 µM): 0.184
relative viability ([1]; first compound 20 µM): 0.139
relative viability ([2]; first compound 0.02 µM): 0.201
relative viability ([2]; first compound 0.2 µM): 0.193
relative viability ([2]; first compound 0.6325 µM): 0.205
relative viability ([2]; first compound 2 µM): 0.205
relative viability ([3]; first compound 0.1 µM): 0.276
relative viability ([3]; first compound 0.3162 µM): 0.315
relative viability ([3]; first compound 1 µM): 0.321
relative viability ([3]; first compound 3.162 µM): 0.305
relative viability ([3]; first compound 10 µM): 0.267
relative viability ([4]; first compound 0.6325 µM): 0.294
relative viability ([4]; first compound 2 µM): 0.235
relative viability ([4]; first compound 6.325 µM): 0.196
relative viability ([4]; first compound 20 µM): 0.189
